In patent US10766869B2, “Triazoles for the treatment of demyelinating dieases” (Vertex Pharmaceuticals Incorporated, priority 2015, dated 2020):
Where two headings read alike, the source gives them in different places.

Tested on: primary rat mixed cortical cells
Experiment: In vitro myelination assay (MBP positive myelin strands, fold myelin pixels above background)
Assay type: cell-based
Settings: Rattus norvegicus; for fold induction at 1 µM: 1.0 μM compound; for fold induction at 10 µM: 10.0 μM compound
Procedure, shortened: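 Mixed cortical culture, P1 rat, 87,500-95,000 cells/well; compound present from seeding, refreshed days 6 and 10; 14 d, 37 °C, 5% CO2. Day 14: PFA fix, anti-MBP + Hoechst. Read-out: fold MBP myelin pixels over untreated, tested at 1.0 and 10.0 μM.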

[1] = read-out: Fold myelin pixels above background relative to baseline of no added compound
[2] = relative to baseline of no added compound, read-out: Fold myelin pixels above background
[3] = relative to baseline of no added compound, read-out: Fold myelin pixels above background, 1.0 μM
[4] = relative to baseline of no added compound, read-out: Fold myelin pixels above background, 10.0 μM

Row | Compound | fold induction at 1 µM [1] | fold induction at 10 µM [1] | fold induction at 1 µM [3] | fold induction at 10 µM [4] | also measured
1 | Cc1cc(Nc2ncn(-c3cc(F)cc(F)c3)n2)cc(N2CCC(N3CCOC(C)C3)CC2)c1 (centres unmarked) [Compound 1023, 1-(3,5-difluorophenyl)-N-[3-methyl-5-[4-(2-methylmorpholin-4-yl)-1-piperidyl]phenyl]-1,2,4-triazol-3-amine] | 1 to 10 | 10 to 100 |  |  | 
2 | Fc1cc(Nc2ncn(-c3cccc(F)c3)n2)cc(N2CCCC2)c1 [Compound 435, 1-(3-fluorophenyl)-N-(3-fluoro-5-pyrrolidin-1-yl-phenyl)-1,2,4-triazol-3-amine] |  |  |  |  | fold induction at 1 µM [2]: 100 to 1000; fold induction at 10 µM [2]: 100 to 1000
3 | Cc1cc(Nc2ncn(-c3ccccc3)n2)cc(C2CCN(C)CC2)c1 [Compound 333, N-[3-methyl-5-(1-methyl-4-piperidyl)phenyl]-1-phenyl-1,2,4-triazol-3-amine] |  |  | 1000 to 10000 | ≤ 1 | 
4 | COCC1CN(c2cc(C)cc(Nc3ncn(-c4cc(F)cc(F)c4)n3)c2)C1 [Compound 116, 1-(3,5-difluorophenyl)-N-[3-[3-(methoxymethyl)azetidin-1-yl]-5-methyl-phenyl]-1,2,4-triazol-3-amine] |  |  | ≤ 1 | ≤ 1 | 
5 | Cc1cc(Nc2ncn(-c3cc(F)cc(F)c3)n2)nc(OCC2COC2)c1 [Compound 1069, N-[1-(3,5-difluorophenyl)-1,2,4-triazol-3-yl]-4-methyl-6-(oxetan-3-ylmethoxy)pyridin-2-amine] | 1 to 10 | 1 to 10 |  |  | 
6 | COc1ccc(-n2cnc(Nc3cc(C)cc(N4CCN(C5COC5)CC4)c3)n2)cc1 [Compound 710, 1-(4-methoxyphenyl)-N-[3-methyl-5-[4-(oxetan-3-yl)piperazin-1-yl]phenyl]-1,2,4-triazol-3-amine] |  |  |  |  | fold induction at 1 µM [2]: 10 to 100; fold induction at 10 µM [2]: ≤ 1
7 | Cc1cc(Nc2ncn(-c3ccccc3)n2)cc(N2CCC(C#N)CC2)c1 [Compound 142, 1-[3-methyl-5-[(1-phenyl-1,2,4-triazol-3-yl)amino]phenyl]piperidine-4-carbonitrile] |  |  | 1000 to 10000 | 100 to 1000 | 
8 | N#Cc1cc(Nc2ncn(-c3cc(F)cc(F)c3)n2)cc(N2CCN(C3COC3)CC2)c1 [Compound 678, 3-[[1-(3,5-difluorophenyl)-1,2,4-triazol-3-yl]amino]-5-[4-(oxetan-3-yl)piperazin-1-yl]benzonitrile] |  |  |  |  | fold induction at 1 µM [2]: 10 to 100; fold induction at 10 µM [2]: 1 to 10
9 | c1cnc(-n2cnc(Nc3cc(C4CC4)cc(N4CC(N5CCOCC5)C4)c3)n2)cn1 [Compound 539, N-[3-cyclopropyl-5-(3-morpholinoazetidin-1-yl)phenyl]-1-pyrazin-2-yl-1,2,4-triazol-3-amine] |  |  |  |  | fold induction at 1 µM [2]: 10 to 100; fold induction at 10 µM [2]: 10 to 100
10 | Cc1cc(Nc2ncn(-c3cc(F)cc(F)c3)n2)cc(N2CCN(CCCN3CCCC3)CC2)c1 [Compound 945, 1-(3,5-difluorophenyl)-N-[3-methyl-5-[4-(3-pyrrolidin-1-ylpropyl)piperazin-1-yl]phenyl]-1,2,4-triazol-3-amine] | 1 to 10 | ≤ 1 |  |  | 
11 | Fc1cc(F)cc(-n2cnc(Nc3cc(C(F)(F)F)cc(N4CCN(C5COC5)CC4)n3)n2)c1 [Compound 540, N-[1-(3,5-difluorophenyl)-1,2,4-triazol-3-yl]-6-[4-(oxetan-3-yl)piperazin-1-yl]-4-(trifluoromethyl)pyridin-2-amine] |  |  |  |  | fold induction at 1 µM [2]: 10 to 100; fold induction at 10 µM [2]: 100 to 1000
12 | F[C@H]1CCN(c2cc(Nc3ncn(-c4ccccc4)n3)cc(C3CC3)n2)C1 [Compound 460, 2-cyclopropyl-6-[(3S)-3-fluoropyrrolidin-1-yl]-N-(1-phenyl-1,2,4-triazol-3-yl)pyridin-4-amine] |  |  |  |  | fold induction at 1 µM [2]: 100 to 1000; fold induction at 10 µM [2]: 10 to 100
13 | CN1CCN(c2cc(Nc3ncn(-c4ccccc4)n3)cc(C(F)(F)F)c2)CC1 [Compound 486, N-[3-(4-methylpiperazin-1-yl)-5-(trifluoromethyl)phenyl]-1-phenyl-1,2,4-triazol-3-amine] |  |  |  |  | fold induction at 1 µM [2]: 100 to 1000; fold induction at 10 µM [2]: ≤ 1
14 | Cc1cc(Nc2ncn(-c3cnccn3)n2)cc(N2CCCN(C3COC3)CC2)c1 [Compound 818, N-[3-methyl-5-[4-(oxetan-3-yl)-1,4-diazepan-1-yl]phenyl]-1-pyrazin-2-yl-1,2,4-triazol-3-amine] | 10 to 100 | 100 to 1000 |  |  | 
15 | COCc1cc(-n2cnc(Nc3cc(C)cc(N4CCN(C5COC5)CC4)c3)n2)ncn1 [Compound 364, 1-[6-(methoxymethyl)pyrimidin-4-yl]-N-[3-methyl-5-[4-(oxetan-3-yl)piperazin-1-yl]phenyl]-1,2,4-triazol-3-amine] |  |  | 1 to 10 | 10 to 100 | 
16 | Cc1cc(Nc2ncn(-c3cccc(C(F)(F)F)c3)n2)cc(N2CCC(N3CCOCC3)CC2)c1 [Compound 854, N-[3-methyl-5-(4-morpholino-1-piperidyl)phenyl]-1-[3-(trifluoromethyl)phenyl]-1,2,4-triazol-3-amine] | 100 to 1000 | 10 to 100 |  |  | 

Row | Compound | fold induction at 1 µM [1] | fold induction at 10 µM [1] | fold induction at 1 µM [3] | fold induction at 10 µM [4] | also measured
17 | Cc1cc(Nc2ncn(-c3ccccc3)n2)cc(N2CCS(=O)(=O)CC2)c1 [Compound 89, N-[3-(1,1-dioxo-1,4-thiazinan-4-yl)-5-methyl-phenyl]-1-phenyl-1,2,4-triazol-3-amine] |  |  | 1000 to 10000 | 100 to 1000 | 
18 | Cc1cc(Nc2ncn(-c3cc(F)cc(F)c3)n2)cc(N2CCCC2CN2CCCC2CO)c1 (centres unmarked) [Compound 1077, [1-[[1-[3-[[1-(3,5-difluorophenyl)-1,2,4-triazol-3-yl]amino]-5-methyl-phenyl]pyrrolidin-2-yl]methyl]pyrrolidin-2-yl]methanol] | 1 to 10 | ≤ 1 |  |  | 
19 | Cc1cc(Nc2ncn(-c3ccccc3)n2)cc(C2CCN(C3COC3)C2)c1 (centres unmarked) [Compound 260, N-[3-methyl-5-[1-(oxetan-3-yl)pyrrolidin-3-yl]phenyl]-1-phenyl-1,2,4-triazol-3-amine] |  |  | 1000 to 10000 | ≤ 1 | 
20 | c1ccc(-n2cnc(Nc3cc(N4CCOCC4)nc(N4CCOCC4)c3)n2)cc1 [Compound 319, 2,6-dimorpholino-N-(1-phenyl-1,2,4-triazol-3-yl)pyridin-4-amine] |  |  | 1 to 10 | ≤ 1 | 
21 | Cc1cc(NC(=O)NC2CCC2)cc(Nc2ncn(-c3ccccc3)n2)c1 [Compound 910, 1-cyclobutyl-3-[3-methyl-5-[(1-phenyl-1,2,4-triazol-3-yl)amino]phenyl]urea] | 1 to 10 | 10 to 100 |  |  | 
22 | [2H]C1([2H])NC([2H])([2H])C([2H])([2H])N(c2cc(C)cc(Nc3ncn(-c4cc(F)cc(F)c4)n3)c2)C1([2H])[2H] [Compound 916, 1-(3,5-difluorophenyl)-N-[3-methyl-5-(2,2,3,3,5,5,6,6-octadeuteriopiperazin-1-yl)phenyl]-1,2,4-triazol-3-amine] | 10 to 100 | ≤ 1 |  |  | 
23 | CC(=O)N1CCCN(c2cc(C)cc(Nc3ncn(-c4ccccc4)n3)c2)CC1 [Compound 280, 1-[4-[3-methyl-5-[(1-phenyl-1,2,4-triazol-3-yl)amino]phenyl]-1,4-diazepan-1-yl]ethanone] |  |  | 1000 to 10000 | 10 to 100 | 
24 | Cc1cc(Nc2ncn(-c3cc(F)cc(F)c3)n2)cc(N2CC3(C2)CN(C(C)C)C3)c1 [Compound 1081, 1-(3,5-difluorophenyl)-N-[3-(2-isopropyl-2,6-diazaspiro[3.3]heptan-6-yl)-5-methyl-phenyl]-1,2,4-triazol-3-amine] | 1 to 10 | 1 to 10 |  |  | 
25 | Cc1cc(Nc2ncn(-c3cccc(C(F)(F)F)c3)n2)cc(OCC2(C)COC2)c1 [Compound 671, N-[3-methyl-5-[(3-methyloxetan-3-yl)methoxy]phenyl]-1-[3-(trifluoromethyl)phenyl]-1,2,4-triazol-3-amine] |  |  |  |  | fold induction at 1 µM [2]: 10 to 100; fold induction at 10 µM [2]: 1 to 10
26 | Cc1cc(Nc2ncn(-c3ccccc3)n2)cc(Nc2ncco2)c1 [Compound 838, 5-methyl-N1-oxazol-2-yl-N3-(1-phenyl-1,2,4-triazol-3-yl)benzene-1,3-diamine] | ≤ 1 | ≤ 1 |  |  | 
27 | COC(=O)N1CCC(c2cc(C)cc(Nc3ncn(-c4ccccc4)n3)c2)CC1 [Compound 12, methyl 4-[3-methyl-5-[(1-phenyl-1,2,4-triazol-3-yl)amino]phenyl]piperidine-1-carboxylate] |  |  | 100 to 1000 | 1 to 10 | 
28 | Fc1cc(Nc2ncn(-c3ccc(F)cc3F)n2)cc(N2CCCOCC2)c1 [Compound 343, 1-(2,4-difluorophenyl)-N-[3-fluoro-5-(1,4-oxazepan-4-yl)phenyl]-1,2,4-triazol-3-amine] |  |  | ≤ 1 | 100 to 1000 | 
29 | CCc1cc(F)cc(-n2cnc(Nc3cc(C)cc(N4CCN(C5COC5)CC4)c3)n2)c1 [Compound 206, 1-(3-ethyl-5-fluoro-phenyl)-N-[3-methyl-5-[4-(oxetan-3-yl)piperazin-1-yl]phenyl]-1,2,4-triazol-3-amine] |  |  | 100 to 1000 | 100 to 1000 | 
30 | Cc1cc(Nc2ncn(-c3cc(F)cc(F)c3)n2)c(F)c(N2CCN(CCO)CC2)c1 [Compound 1043, 2-[4-[3-[[1-(3,5-difluorophenyl)-1,2,4-triazol-3-yl]amino]-2-fluoro-5-methyl-phenyl]piperazin-1-yl]ethanol] | 10 to 100 | ≤ 1 |  |  | 
31 | CC(C)(C)c1cc(Nc2ncn(-c3cnccn3)n2)cc(N2CCN(C3COC3)CC2)c1 [Compound 288, N-[3-tert-butyl-5-[4-(oxetan-3-yl)piperazin-1-yl]phenyl]-1-pyrazin-2-yl-1,2,4-triazol-3-amine] |  |  | 1000 to 10000 | 1000 to 10000 | 
